The numbers were not newly measured in patent publication US10273264B2, “Cortistatin analogues and syntheses and uses thereof” (President and Fellows of Harvard College, priority 2015, dated 2019), which cites them from elsewhere.

Data set [1] deals with AML cell lines. Particulars: in vitro; as described in PCT/US2014/72365.
Data set [2] relates to AML. The settings on record: in vivo; as described in PCT/US2014/72365.
The subject of data set [3] is cell lines derived from patients with MPNs. Particulars: as described in PCT/US2014/72365.
Data set [4] concerns the target CDK19 (Homo sapiens, UniProt Q9BWU1). The settings on record: reported, Cee et al. and US 20120071477.
For data set [5], the system named is Wnt/beta-catenin target genes in AML cells. The settings on record: as described in PCT/US2014/72365.
For data set [6], the system named is beta-catenin activated transcription. Particulars: reporter gene assay; as described in PCT/US2014/72365. Background: Reporter assays use an easily measured gene product as a stand-in for the process of interest.
Data set [7] concerns PMF. The settings on record: as described in PCT/US2014/72365.
The subject of data set [8] is STAT1 phosphorylation. The settings on record: as described in PCT/US2014/72365.

CDK19, sequence (Q9BWU1 whole entry): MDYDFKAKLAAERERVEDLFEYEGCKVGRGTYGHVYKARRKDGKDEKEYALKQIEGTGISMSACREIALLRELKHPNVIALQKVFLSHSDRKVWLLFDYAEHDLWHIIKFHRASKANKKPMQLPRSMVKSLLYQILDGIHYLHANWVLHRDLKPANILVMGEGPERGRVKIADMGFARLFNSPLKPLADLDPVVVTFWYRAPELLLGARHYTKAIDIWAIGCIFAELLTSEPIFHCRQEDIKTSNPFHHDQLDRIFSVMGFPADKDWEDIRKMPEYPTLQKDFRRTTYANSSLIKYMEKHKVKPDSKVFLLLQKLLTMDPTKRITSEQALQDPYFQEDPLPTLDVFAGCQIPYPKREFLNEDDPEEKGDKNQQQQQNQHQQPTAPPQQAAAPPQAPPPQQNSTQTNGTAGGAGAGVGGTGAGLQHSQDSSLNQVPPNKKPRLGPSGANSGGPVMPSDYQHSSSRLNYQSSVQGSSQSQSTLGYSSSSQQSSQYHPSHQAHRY

As for cortistatin A, the “inhibition of proliferation of AML cell lines” value in data set [1] is “inhibit”. The “inhibition of AML progression” value in data set [2] is listed as “inhibits”. The “inhibition of proliferation of MPN patient-derived cell lines” value in data set [3] is reported as “inhibits”. Besides, the “binding to CDK19” value in data set [4] was “bind”. Further, in data set [5], the “inhibition of expression of putative Wnt/beta-catenin target genes” value is “inhibits”. Moreover, the “inhibition of beta-catenin activated transcription” value in data set [6] is given as “inhibits”. Further, the “efficacy in an in vivo model of PMF” value in data set [7] is on record as “efficacious”. Besides, the “inhibition of interferon-gamma-stimulated STAT1 phosphorylation” value in data set [8] is on record as “inhibits”.
